Changes are numbered by the printed parent chain.
Columns and labels:
AT1 Q257A receptor = molecular target: T1, AT1 Q257A receptor (Rattus norvegicus, UniProt P25095, Q257A); test: Immunoblotting of ERK 1/2 activation in COS7 cells overexpressing AT1-Q257A receptor; format: cell-based; conditions: 1 µM ligands or 0.1 µM Ang II, 10 min, n = 5, vs. (-)
T1 construct: expressed in transfected cells; host or cells: COS7
T1 sequence (P25095 1-359 Q257A): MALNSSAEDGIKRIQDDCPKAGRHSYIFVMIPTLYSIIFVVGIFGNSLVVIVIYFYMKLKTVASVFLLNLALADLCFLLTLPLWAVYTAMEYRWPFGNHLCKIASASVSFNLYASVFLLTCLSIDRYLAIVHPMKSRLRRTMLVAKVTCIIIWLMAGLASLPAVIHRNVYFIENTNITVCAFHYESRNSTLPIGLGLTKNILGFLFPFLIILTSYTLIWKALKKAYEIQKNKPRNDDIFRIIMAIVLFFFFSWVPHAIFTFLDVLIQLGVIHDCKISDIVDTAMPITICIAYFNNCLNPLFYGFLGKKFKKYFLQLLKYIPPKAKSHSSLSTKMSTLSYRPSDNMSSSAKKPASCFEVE
Method: The synthetic rat AT1 receptor gene, which was cloned in the shuttle expression vector pMT-2, was used for expression and mutagenesis, as described previously. […] In the experiments, cells were grown without a cell-growth supplement. To express the AT1 receptor protein, 10 µg of purified plasmid DNA per 10^7 cells was used in the transfection. Wild-type and mutated AT1 receptors were transiently transfected into cells using Lipofectamine 2000 liposomal reagent (Roche Applied Science, Penzberg, Germany). Cells were plated and grown and were 70–90% confluent at the time of transfection. We incubated plasmid DNA (10 µg)–lipid (10 µL) complexes for 5 min at room temperature and added and incubated the complexes with cells for 24 h. We then analyzed the parameters in transfected cells. […] Transfected cells that had been cultured for 48–72 h were harvested. […]
In in vitro studies, ERK 1/2 activation by 1 µM ligands or 0.1 µM Ang II incubated for 10 min was measured using COS7 cells that overexpressed AT1 wild-type and mutant receptors. ERK activity was measured in cells maintained for 18 h in DMEM containing 0.1% serum. […] We homogenized the cells in lysis buffer plus protease inhibitors and determined the protein concentration using the bicinchoninic acid method. […] The signal was independently quantified by digital image analysis (ImageJ, National Institutes of Health, Bethesda, MD, USA).

AT1 L112A receptor = molecular target: T2, AT1 L112A receptor (Rattus norvegicus, UniProt P25095, L112A); test: Competition binding study, 125I-[Sar1,Ile8]Ang II, AT1 L112A receptor; conditions: competition with 125I-[Sar1,Ile8]Ang II, n = 3, mean ± standard error, read-out: Binding affinity (Kd)
T2 construct: expressed in transfected cells; host or cells: COS7
T2 sequence (P25095 1-359 L112A): T1 sequence (P25095 1-359 Q257A) with L112A, A257Q
Excerpt: We mutated four amino acids in transmembrane (TM) III, VI, and VII in the AT1 receptor (L112A, Q257A, Y292A, and N295A receptors). We determined the mutation sites of the AT1 receptor according to ARB, which produced olmesartan derivatives with different interactions and functions toward the AT1 receptor, as previously reported by Zhang et al., since the additional 4-hydroxybenzyl groups of R781253 and R794847 were predicted to extend to a sub-pocket on the bottom of the AT1 receptor ligand-binding pocket consisting of Leu^112 and Gln^257. In addition, since the biased ligand TRV027 induced changes near the NPxxY motif in TM domain 7 that are related to receptor activation, Tyr^292 and Asn^295 in the AT1 receptor were mutated.
The synthetic rat AT1 receptor gene, which was cloned in the shuttle expression vector pMT-2, was used for expression and mutagenesis, as described previously. COS7 cells (No. CRL-1651, ATCC, Manassas, VA, USA) were cultured in 10% fetal bovine serum (FBS) and penicillin- and streptomycin-supplemented Dulbecco’s modified Eagle’s essential medium (PS-DMEM) in 5% CO2 at 37 °C. In the experiments, cells were grown without a cell-growth supplement. To express the AT1 receptor protein, 10 µg of purified plasmid DNA per 10^7 cells was used in the transfection. […] We then analyzed the parameters in transfected cells. […]
The Kd (nM) values of receptor binding were determined with ^125I-[Sar^1, Ile^8]AngII-binding experiments under equilibrium conditions. Binding kinetics were determined following the methods described in the literature. […] Ang II was determined in the presence of a high concentration (10^−6 M) of unlabeled [Sar^1, Ile^8]. […] The radioactivity trapped on the filters was quantified using an automatic γ-counter. The percentage (%) of specific binding of ^125I-[Sar^1, Ile^8]Ang II was calculated using the following formula: 100 × (% total binding of ^125I-[Sar^1, Ile^8]Ang II—nonspecific binding of ^125I-[Sar^1, Ile^8]Ang II)/(% total binding of ^125I-[Sar^1, Ile^8]Ang II).

CCCc1nc(C(C)(C)O)c(C(=O)O)n1Cc1ccc(-c2ccccc2-c2nnn[nH]2)cc1 [Olmesartan, olmesartan]
ERK1/2 activation (AT1 Q257A receptor): did not change ERK1/2 activation

CCCc1nc(C(C)(C)O)c(C(N)=O)n1Cc1ccc(-c2ccccc2-c2nnn[nH]2)cc1 [R239470]
Kd (AT1 L112A receptor): 37 ± 12 nM

CCCc1nc(C(C)(C)O)c(C(=O)O)n1Cc1ccc(-c2cc(Cc3ccc(O)cc3)ccc2-c2nnn[nH]2)cc1 [R781253]
Kd (AT1 L112A receptor): 23 ± 7 nM
